System: not listed separately
Test: Oral bioavailability in rat
Type: ADME, organism-based
Conditions: in vivo

| bioavailability [%] | SMILES |
| --- | --- |
| 15.2 | CC[C@H]1OC(=O)[C@H](C)[C@@H](OC(=O)N2C(=O)OC[C@@H]2C)[C@H](C)[C@@H](O[C@@H]2O[C@H](C)C[C@H](N(C)CC3CC3)[C@H]2O)[C@@](C)(OC)C[C@@H](C)C(=O)[C@H](C)[C@H]2N(CCc3ccc(Cl)c(Cl)c3)C(=O)O[C@]12C |

Target: T1, Gonadotropin-releasing hormone receptor (Homo sapiens, UniProt P30968)
T1 sequence (P30968 whole entry): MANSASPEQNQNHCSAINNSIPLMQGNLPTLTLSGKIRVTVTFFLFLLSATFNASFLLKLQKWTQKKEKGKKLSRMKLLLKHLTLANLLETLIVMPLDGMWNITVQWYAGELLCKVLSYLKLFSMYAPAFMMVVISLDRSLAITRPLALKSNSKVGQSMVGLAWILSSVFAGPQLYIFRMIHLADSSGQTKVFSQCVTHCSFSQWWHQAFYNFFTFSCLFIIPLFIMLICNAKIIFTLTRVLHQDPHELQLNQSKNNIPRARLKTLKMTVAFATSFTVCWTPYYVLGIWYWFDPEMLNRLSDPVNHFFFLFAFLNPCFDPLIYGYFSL
Test: Ability of compound to inhibit [125I-Tyr5,DLeu6,NMeLeu7,Pro9-NEt]GnRH agonist binding to the cloned human Gonadotropin-releasing hormone receptor was evaluated
Conditions: not given

| Ki [µM] | IC50 [µM] | SMILES |
| --- | --- | --- |
| 0.002 | – | CC[C@H]1OC(=O)[C@H](C)[C@@H](OC(=O)N2C(=O)OC[C@@H]2C)[C@H](C)[C@@H](O[C@@H]2O[C@H](C)C[C@H](N(C)CC3CC3)[C@H]2O)[C@@](C)(OC)C[C@@H](C)C(=O)[C@H](C)[C@H]2N(CCc3ccc(Cl)c(Cl)c3)C(=O)O[C@]12C |
| – | 0.00044 | Cc1cc(-c2c(O)nc3cc(Cl)c(C(=O)Nc4ncccn4)cc3c2OCC[C@@H]2CCN2)cc(C)c1C |

Target: T1, Gonadotropin-releasing hormone receptor
Test: Ability to inhibit [125I-Tyr5,DLeu6,NMeLeu7,Pro9-NEt]GnRH agonist binding to the cloned human Gonadotropin-releasing hormone receptor was evaluated
Conditions: not given

| SMILES | Ki [µM] |
| --- | --- |
| CCCC(=O)Nc1ccc(-c2cn3c(=O)c(C(=O)OCC)cn(Cc4ccccc4F)c3n2)cc1 | 30 |
| CCCC(=O)Nc1ccc(-c2nc3n(Cc4ccccc4F)cc(C(=O)OC(CC)CC)c(=O)n3c2CN(C)CCOC)cc1 | 0.036 |
| CCCC(=O)Nc1ccc(-c2nc3n(Cc4ccccc4F)cc(C(=O)OC(CC)CC)c(=O)n3c2CN2CCc3ccccc3C2)cc1 | 0.29 |
| CCCC(=O)Nc1ccc(-c2cn3c(=O)c(C(=O)OC(CC)CC)cn(Cc4ccccc4F)c3n2)cc1 | 28 |
| CCCC(=O)Nc1ccc(-c2nc3n(Cc4ccccc4F)cc(C(=O)OC(CC)CC)c(=O)n3c2CN2CCCC2)cc1 | 2.2 |
| CCCC(=O)Nc1ccc(-c2nc3n(Cc4ccccc4F)cc(C(=O)OC(CC)CC)c(=O)n3c2CN(C)CC#N)cc1 | 0.3 |

Second part, the compound after the results:

| Ki [µM] | SMILES |
| --- | --- |
| 0.041 | CCC(CC)OC(=O)c1cn(Cc2ccccc2F)c2nc(-c3ccc(NC(=O)C(C)C)cc3)c(CN(C)Cc3ccccc3)n2c1=O |
| 0.0075 | CCCC(=O)Nc1ccc(-c2nc3n(Cc4ccccc4F)cc(C(=O)OC(CC)CC)c(=O)n3c2CN(C)CCc2ccccn2)cc1 |
| 0.052 | CCCC(=O)Nc1ccc(-c2nc3n(Cc4ccccc4F)cc(C(=O)OC(CC)CC)c(=O)n3c2CN(C)Cc2cccnc2)cc1 |
| 0.014 | CCCC(=O)Nc1ccc(-c2nc3n(Cc4ccccc4F)cc(C(=O)OC(CC)CC)c(=O)n3c2CN(C)CCc2ccccc2)cc1 |
| 0.08 | CCCC(=O)Nc1ccc(-c2nc3n(Cc4ccccc4F)cc(C(=O)OCC)c(=O)n3c2CN(C)Cc2ccccc2)cc1 |
| 0.95 | CCOC(=O)c1cn(Cc2ccccc2F)c2nc(-c3ccc(OC)cc3)c(CN(C)Cc3ccccc3)n2c1=O |
| 0.23 | CCOC(=O)c1cn(Cc2ccccc2F)c2nc(-c3ccc(OC)cc3)c(CN(C)CCc3ccccn3)n2c1=O |
| 0.012 | CCCC(=O)Nc1ccc(-c2nc3n(Cc4ccccc4F)cc(C(=O)OCC)c(=O)n3c2CN(C)CCc2ccccn2)cc1 |
| 0.029 | CCCC(=O)Nc1ccc(-c2nc3n(Cc4ccccc4F)cc(C(=O)OC(CC)CC)c(=O)n3c2CN(C)Cc2ccco2)cc1 |

Target: T2, Gonadotropin-releasing hormone receptor (Rattus norvegicus, UniProt P30969)
T2 sequence (P30969 whole entry): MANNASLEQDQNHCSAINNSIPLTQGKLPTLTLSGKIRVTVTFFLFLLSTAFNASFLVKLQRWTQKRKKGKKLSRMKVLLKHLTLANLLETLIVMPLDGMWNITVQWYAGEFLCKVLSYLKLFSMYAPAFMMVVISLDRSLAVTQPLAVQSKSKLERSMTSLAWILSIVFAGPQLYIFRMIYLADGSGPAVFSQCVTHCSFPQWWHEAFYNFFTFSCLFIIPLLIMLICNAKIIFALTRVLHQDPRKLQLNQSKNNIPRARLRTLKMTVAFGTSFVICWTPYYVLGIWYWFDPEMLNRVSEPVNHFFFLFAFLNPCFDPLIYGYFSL
Test: Ability of compound to inhibit [125I-Tyr5,DLeu6,NMeLeu7,Pro9-NEt]GnRH agonist binding to the rat Gonadotropin-releasing hormone receptor was evaluated
Conditions: not given

| Ki [µM] | IC50 [µM] | SMILES |
| --- | --- | --- |
| 0.000631 | – | CC[C@H]1OC(=O)[C@H](C)[C@@H](OC(=O)N2C(=O)OC[C@@H]2C)[C@H](C)[C@@H](O[C@@H]2O[C@H](C)C[C@H](N(C)CC3CC3)[C@H]2O)[C@@](C)(OC)C[C@@H](C)C(=O)[C@H](C)[C@H]2N(CCc3ccc(Cl)c(Cl)c3)C(=O)O[C@]12C |
| – | 0.004 | Cc1cc(-c2c(O)nc3cc(Cl)c(C(=O)Nc4ncccn4)cc3c2OCC[C@@H]2CCN2)cc(C)c1C |
